Measured values published in patent publication US8889726B2, “Chemica compounds” (priority 2011, dated 2014).
Read-outs that look alike come from different tables or passages of the source.

Assays:
[1] = tested on: HCV genotype 1b subgenomic replicon (ET cell line); assay: HCV replicon assay, genotype 1b (luciferase); type: cell-based; details: genotype 1b replicon ET cell line, luciferase activity at 48 hours
Description: (§1) Protocol for Testing and Data Analysis of Compounds in the HCV Replicon Assay
(§2) Compounds were assayed for activity against HCV using the genotype 1a and 1b subgenomic replicon model systems. Stable cell lines bearing the genotype 1a and 1b replicons were used for screening of compounds. Both replicons are bicistronic and contain the firefly luciferase gene. The ET cell line is stably transfected with RNA transcripts harboring a I389luc-ubi-neo/NS3-3′/ET replicon with firefly luciferase-ubiquitin-neomycin phosphotransferase fusion protein and EMCV-IRES driven NS3-5B polyprotein containing the cell culture adaptive mutations (E1202G; T1280I; K1846T) (Krieger at al, 2001 and unpublished). The genotype 1a replicon is a stable cell line contains the H77 NS3-5B polyprotein sequence, modified to contain the firefly luciferase gene and encode for neomycin resistance. The genotype 1a replicon contains several adaptive changes (NS4B Q31H, NS5A K68R, NS5A S232I). The cells were grown in DMEM, supplemented with 10% fetal calf serum, 2 mM Glutamine, Penicillin (100 IU/mL)/Streptomycin (100 μg/mL), lx nonessential amino acids, and 250-500 μg/mL G418 (“Geneticin”). They were all available through Life Technologies (Bethesda, Md.). The cells were plated at 5×10^3 cells/well in 384 well plates containing compounds. The final concentration of compounds ranged between 0.03 pM to […] and the final DMSO concentration of 0.5-1%.
(§3) Luciferase activity was measured 48 hours later by adding a Steady glo reagent (Promega, Madison, Wis.). Percent inhibition of replication data was plotted relative to no compound control. Under the same condition, cytotoxicity of the compounds was determined using cell titer glo (Promega, Madison, Wis.). EC50s were determined from an 11 point dose response curve using 3-4-fold serial dilution for each compound, which spans a concentration range >1000 fold. The level of inhibition for each compound was determined with Activity Base or with BioAssay plus the Excel XC50 module. Percent inhibition was determined with the following equation where the cross-talk corrected value is the value from the test well, the compound positive control mean is the average value of the wells with no compound present, and the DMSO negative control mean is the average value of the wells with DMSO but no cells present.
(§4) [formula] These normalized values are exported to EC50 where they are plotted against the molar compound concentrations using the standard four parameter logistic equation:
(§5) [formula] Where: • A=minimum y D=slope factor • B=maximum y x=log10 compound concentration [M] • C=log10EC50 pEC50=−C

[2] = tested on: HCV genotype 1a subgenomic replicon; assay: HCV replicon assay, genotype 1a (luciferase); type: cell-based; details: read-out: Replicon 1A EC50
Description: as §1, §2, §3, §4, §5

Compound | EC50 ([1]; Hepatitis C virus) | EC50 ([2]; Hepatitis C virus, 48 h) | EC50 [1] | EC50 ([2]; genotype 1a replicon stable cell line (H77 NS3-5B), luciferase activity at 48 hours)
COC(=O)N[C@H](C(=O)N1[C@H](c2ncc(-c3ccc4c(c3)-c3ccc(-c5cnc([C@@H]6C[C@@H]7CCC[C@@H]7N6C(=O)[C@@H](NC(=O)OC)[C@@H](C)O)[nH]5)cc3-4)[nH]2)C[C@@H]2CCC[C@@H]21)[C@@H](C)O [Example 1] | 0.006 nM | 0.011 nM |  | 
COC(=O)N[C@H](C(=O)N1[C@H](c2ncc(-c3ccc4c(c3)-c3ccc(-c5cnc([C@@H]6C[C@@H]7CCC[C@@H]7N6C(=O)[C@@H](NC(=O)OC)[C@@H](C)OC)[nH]5)cc3-4)[nH]2)C[C@@H]2CCC[C@@H]21)[C@@H](C)OC [Example 2, dimethyl ((2S,2′S,3R,3′R)-((2S,2′S,3aS,3a′S,6aS,6a′S)-2,2′-(5,5′-(biphenylene-2,6-diyl)bis(1H-imidazole-5,2-diyl))bis(hexahydrocyclopenta[b]pyrrole-2,1(2H)-diyl))bis(3-methoxy-1-oxobutane-2,1-diyl))dicarbamate] | 0.008 nM | 0.01 nM |  | 
COC(=O)N[C@H](C(=O)N1[C@H](c2nc(-c3ccc4c(c3)-c3ccc(-c5c[nH]c([C@@H]6C[C@@H]7CCC[C@@H]7N6C(=O)[C@@H](NC(=O)OC)[C@@H](C)OC)n5)cc3-4)c[nH]2)C[C@@H]2CCC[C@@H]21)[C@@H](C)O [Example 3, Methyl [(1S,2R)-1-{[(2S,3aS,6aS)-2-[4-(6-{2-[(2S,3aS,6aS)-1-((2S,3R)-3-hydroxy-2-{[(methyloxy)carbonyl]amino}butanoyl)octahydrocyclopenta[b]pyrrol-2-yl]-1H-imidazol-4-yl}-2-biphenylenyl)-1H-imidazol-2-yl]hexahydrocyclopenta[b]pyrrol-1(2H)-yl]carbonyl}-2-(methyloxy)propyl]carbamate] | 0.008 nM | 0.013 nM |  | 
COC(=O)N[C@H](C(=O)N1[C@H](c2ncc(-c3ccc4c(c3)Cc3cc(-c5cnc([C@@H]6C[C@H]7CCC[C@H]7N6C(=O)[C@H](NC(=O)OC)[C@H](C)OC)[nH]5)ccc3-4)[nH]2)C[C@@H]2CCC[C@@H]21)[C@@H](C)OC [Example 4] | 0.02 nM | 0.04 nM |  | 
COC(=O)N[C@H](C(=O)N1[C@H](c2ncc(-c3ccc4c(c3)Cc3ccc(-c5cnc([C@@H]6C[C@H]7CCC[C@H]7N6C(=O)[C@H](NC(=O)OC)[C@H](C)OC)[nH]5)cc3C4)[nH]2)C[C@@H]2CCC[C@@H]21)[C@@H](C)OC [Example 5, dimethyl ((2S,2′S,3R,3′R)-((2S,2′S,3aS,3a′S,6aS,6a′S)-2,2′-(5,5′-(9,10-dihydroanthracene-2,6-diyl)bis(1H-imidazole-5,2-diyl))bis(hexahydrocyclopenta[b]pyrrole-2,1(2H)-diyl))bis(3-methoxy-1-oxobutane-2,1-diyl))dicarbamate] | 0.02 nM | 0.032 nM |  | 
COC(=O)N[C@H](C(=O)N1[C@H](c2ncc(-c3ccc4c(c3)CCc3cc(-c5cnc([C@@H]6C[C@H]7CCC[C@H]7N6C(=O)[C@H](NC(=O)OC)[C@H](C)OC)[nH]5)ccc3-4)[nH]2)C[C@@H]2CCC[C@@H]21)[C@@H](C)OC [Example 6, Dimethyl ((2S,2′S,3R,3′R)-((2S,2′S,3aS,3a′S,6aS,6a′S)-2,2′-(5,5′-(9,10-dihydrophenanthrene-2,7-diyl)bis(1H-imidazole-5,2-diyl))bis(hexahydrocyclopenta[b]pyrrole-2,1(2H)-diyl))bis(3-methoxy-1-oxobutane-2,1-diyl))dicarbamate] | 0.016 nM | 0.016 nM |  | 
COC(=O)N[C@H](C(=O)N1[C@H](c2ncc(-c3ccc4c5ccc(-c6cnc([C@@H]7C[C@@H]8CCC[C@@H]8N7C(=O)[C@@H](NC(=O)OC)[C@@H](C)OC)[nH]6)cc5n(C)c4c3)[nH]2)C[C@@H]2CCC[C@@H]21)[C@@H](C)OC [Example 7, dimethyl ((2S,2′S,3R,3′R)-((2S,2′S,3aS,3a′S,6aS,6a′S)-2,2′-(5,5′-(9-methyl-9H-carbazole-2,7-diyl)bis(1H-imidazole-5,2-diyl))bis(hexahydrocyclopenta[b]pyrrole-2,1(2H)-diyl))bis(3-methoxy-1-oxobutane-2,1-diyl))dicarbamate] |  |  | 0.032 nM | 0.16 nM
COC(=O)N[C@H](C(=O)N1[C@@H]2CCC[C@@H]2C[C@H]1c1ncc(-c2ccc3c(c2)C(F)(F)c2cc(-c4cnc([C@@H]5C[C@@H]6CCC[C@@H]6N5C(=O)[C@@H](NC(=O)OC)[C@@H](C)OC)[nH]4)ccc2-3)[nH]1)[C@@H](C)OC [Example 8, Dimethyl ((2S,2′S,3R,3′R)-((2S,2′S,3aS,3a′S,6aS,6a′S)-2,2′-(5,5′-(9,9-difluoro-9H-fluorene-2,7-diyl)bis(1H-imidazole-5,2-diyl))bis(hexahydrocyclopenta[b]pyrrole-2,1(2H)-diyl))bis(3-methoxy-1-oxobutane-2,1-diyl))dicarbamate] | 0.016 nM | 0.032 nM |  | 
COC(=O)N[C@H](C(=O)N1[C@@H]2CCC[C@@H]2C[C@H]1c1ncc(-c2ccc3c(c2)S(=O)(=O)c2cc(-c4cnc([C@@H]5C[C@@H]6CCC[C@@H]6N5C(=O)[C@@H](NC(=O)OC)[C@@H](C)OC)[nH]4)ccc2-3)[nH]1)[C@@H](C)OC [Example 9] | 0.032 nM | 0.08 nM |  | 
COC(=O)N[C@H](C(=O)N1[C@@H]2CCC[C@@H]2C[C@H]1c1ncc(-c2ccc3c(c2)Oc2ccc(-c4cnc([C@@H]5C[C@@H]6CCC[C@@H]6N5C(=O)[C@@H](NC(=O)OC)[C@@H](C)OC)[nH]4)cc2O3)[nH]1)[C@@H](C)OC [Example 10, Dimethyl ((2S,2′S,3R,3′R)-((2S,2′S,3aS,3a′S,6aS,6a′S)-2,2′-(5,5′-(dibenzo[b,e][1,4]dioxine-2,7-diyl)bis(1H-imidazole-5,2-diyl))bis(hexahydrocyclopenta[b]pyrrole-2,1(2H)-diyl))bis(3-methoxy-1-oxobutane-2,1-diyl))dicarbamate] | 0.01 nM | 0.01 nM |  | 
